Measurements published in ChEMBL document CHEMBL5365476, “VHL-Modified PROteolysis TArgeting Chimeras (PROTACs) as a Strategy to Evade Metabolic Degradation in In Vitro Applications” (J Med Chem, 2023).

What was measured:
[1] = Metabolic stability in human hepatocytes assessed as half life; type: ADME, cell-based, Hepatocyte
[2] = molecular target: von Hippel-Lindau disease tumor suppressor (Homo sapiens) (UniProt P40337); assay: Binding affinity to 6-His tagged human VHL at 50 uM incubated for 1 hr by HTRF based assay relative to control
[3] = Drug metabolism in human hepatocytes assessed as M-200 metabolite formation incubated for 240 mins in presence of ZPP by LC-MS/MS analysis; type: ADME, cell-based, Hepatocyte; conditions: 4 h
[4] = Drug metabolism in human hepatocytes assessed as M + 16 metabolite formation incubated for 240 mins by LC-MS/MS analysis; type: ADME, cell-based, Hepatocyte; conditions: 4 h
[5] = Drug metabolism in human hepatocytes assessed as M + 16 metabolite formation incubated for 240 mins in presence of ZPP by LC-MS/MS analysis; type: ADME, cell-based, Hepatocyte; conditions: 4 h
[6] = Drug metabolism in human liver microsomes assessed as M-200 metabolite formation incubated for 60 mins; type: ADME, Microsome; conditions: 1 h
[7] = Drug metabolism in human liver microsomes assessed as M-200 metabolite formation incubated for 60 mins in presence of 1 nM ZPP; type: ADME, Microsome; conditions: 1 h
[8] = Drug metabolism in human liver microsomes assessed as M-200 metabolite formation incubated for 60 mins in presence of 30 nM ZPP; type: ADME, Microsome; conditions: 1 h
[9] = Drug metabolism in human liver cytosol assessed as M-200 metabolite formation incubated for 60 mins in presence of 30 nM ZPP; type: ADME, subcellular; conditions: 1 h
[10] = Drug metabolism in human hepatocytes assessed as M-200 metabolite formation incubated for 240 mins in presence of 3 uM ZPP by LC-MS/MS analysis; type: ADME, cell-based, Hepatocyte; conditions: 4 h
[11] = Drug metabolism in HEK293 cells cytosol assessed as M-200 metabolite formation incubated for 60 mins in presence of 30 nM ZPP; type: ADME, subcellular; conditions: human, 1 h
[12] = Drug metabolism in HEK293 cells cytosol assessed as M-525 metabolite formation; type: ADME, subcellular; conditions: human
[13] = Metabolic stability in HEK293 cells cytosol assessed as half life; type: ADME, subcellular; conditions: human, HEK293 cell cytosol
[14] = Drug metabolism in HEK293 cells cytosol assessed as M-200 metabolite formation incubated for 60 mins; type: ADME, subcellular; conditions: human, 1 h
[15] = Drug metabolism in HEK293 cells cytosol assessed as M+16 metabolite formation incubated for 60 mins; type: ADME, subcellular; conditions: human, 1 h
[16] = Drug metabolism in human liver cytosol assessed as M-200 metabolite formation incubated for 60 mins in presence of 100 uM ZPP; type: ADME, subcellular; conditions: 1 h
[17] = Drug metabolism in HEK293 cells cytosol assessed as M+16 metabolite formation incubated for 60 mins in presence of 1 to 30 nM ZPP; type: ADME, subcellular; conditions: human, 1 h

Sequence of von Hippel-Lindau disease tumor suppressor (Homo sapiens) (P40337 whole entry, looked up): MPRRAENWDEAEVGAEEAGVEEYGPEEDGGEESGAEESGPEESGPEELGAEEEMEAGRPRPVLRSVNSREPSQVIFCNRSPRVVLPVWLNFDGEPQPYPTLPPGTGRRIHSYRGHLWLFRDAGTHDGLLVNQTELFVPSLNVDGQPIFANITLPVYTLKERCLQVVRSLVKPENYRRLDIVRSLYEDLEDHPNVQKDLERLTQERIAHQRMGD

**Q.** What does the source list for `Cc1ncsc1-c1ccc(-c2c[nH]c([C@@H]3C[C@@H](O)CN3C(=O)[C@@H](N)C(C)(C)C)n2)cc1`?
**A.** half-life [1]: 5.76 h; Activity [2]: 21%

**Q.** Which results are given for `Cc1nc(C)c(-c2ccc(-c3c[nH]c([C@@H]4C[C@@H](O)CN4C(=O)[C@@H](N)C(C)(C)C)n3)cc2)s1`?
**A.** half-life [1]: 5.58 h; Activity [2]: 35%

**Q.** With `Cc1ncsc1-c1ccc([C@H](C)NC(=O)[C@@H]2C[C@@H](O)CN2C(=O)[C@@H](NC(=O)CCCCNC(=O)COc2c(-c3csc(N4CCOCC4)n3)ccc(F)c2F)C(C)(C)C)cc1` as the compound, how does the Drug metabolism [3] read?
**A.** Metabolite_Detected

**Q.** And the Drug metabolism [4]?
**A.** Metabolite_Detected

**Q.** What about the Drug metabolism [5] of the same compound?
**A.** Metabolite_Detected

**Q.** What about the Drug metabolism [6] of the same compound?
**A.** Metabolite_Notdetected

**Q.** And the Drug metabolism [7]?
**A.** Metabolite_Notdetected

**Q.** And the Drug metabolism [8]?
**A.** Metabolite_Notdetected

**Q.** What about the Drug metabolism [9] of the same compound?
**A.** Metabolite_Notdetected

**Q.** And the Drug metabolism [10]?
**A.** Metabolite_Notdetected

**Q.** And the Drug metabolism [11]?
**A.** Metabolite_Notdetected

**Q.** And the Drug metabolism [12]?
**A.** Metabolite_Detected

**Q.** And the half-life [13]?
**A.** 2.85 h

**Q.** With `Cc1nc(C)c(-c2ccc(-c3cnc([C@@H]4C[C@@H](O)CN4C(=O)[C@@H](NC(=O)CCCCNC(=O)COc4c(-c5csc(N6CCOCC6)n5)ccc(F)c4F)C(C)(C)C)[nH]3)cc2)s1` as the compound, how does the half-life [13] read?
**A.** 17.1 h

**Q.** Which Drug metabolism [14] does the source give for `Cc1ncsc1-c1ccc(-c2cnc([C@@H]3C[C@@H](O)CN3C(=O)[C@@H](NC(=O)CCCCNC(=O)COc3c(-c4csc(N5CCOCC5)n4)ccc(F)c3F)C(C)(C)C)[nH]2)cc1` here?
**A.** Metabolite_Notdetected

**Q.** What about the Drug metabolism [15] of the same compound?
**A.** Metabolite_Detected

**Q.** For `Cc1nc(C)c(-c2ccc([C@H](C)NC(=O)[C@@H]3C[C@@H](O)CN3C(=O)[C@@H](N)C(C)(C)C)cc2)s1.Cl`, which half-life [1] is on record?
**A.** 2.74 h

**Q.** And the Activity [2]?
**A.** 65%

**Q.** Which Drug metabolism [4] does the source give for `Cc1ncsc1-c1ccc([C@H](C)NC(=O)[C@@H]2C[C@@H](O)CN2C(=O)[C@@H](N)C(C)(C)C)cc1` here?
**A.** Metabolite_Detected

**Q.** And the Drug metabolism [5]?
**A.** Metabolite_Detected

**Q.** What about the Drug metabolism [16] of the same compound?
**A.** Metabolite_Detected

**Q.** And the Drug metabolism [15]?
**A.** Metabolite_Detected

**Q.** And the Drug metabolism [17]?
**A.** Metabolite_Detected

**Q.** What about the half-life [1] of the same compound?
**A.** 2.01 h

**Q.** And the Activity [2]?
**A.** 73%
